Experiments:
[1] = Cytotoxic activity against human fibroblasts assessed as reduction in cell viability incubated for 48 hrs by MTT assay; type: cell-based; conditions: Fibroblast
AGS = test: Cytotoxic activity against human AGS cells assessed as reduction in cell viability incubated for 48 hrs by MTT assay; type: cell-based
Mus musculus [2] = test: Gastroprotective activity in Swiss albino mouse model of HCl/EtOH-induced lesion assessed as inhibition of gastric lesions at 50 mg/kg, po dosed 50 mins before HCl/EtOH challenge and measured 1 hr post HCl/EtOH challenge; type: functional; conditions: Stomach
Mus musculus [3] = test: Gastroprotective activity in Swiss albino mouse model of HCl/EtOH-induced lesion pre-treated with 3.5 mg/kg vanilloid receptor antagonist ruthenium red assessed as gastric lesion index at 50 mg/kg, po dosed 50 mins before HCl/EtOH challenge and measured 1 hr post HCl/EtOH challenge (reference value: 12.1 +/- 2.5 mm); type: functional, Stomach
Mus musculus [4] = test: (§1) Gastroprotective activity in Swiss albino mouse model of HCl/EtOH-induced lesion pre-treated with 10 mg/kg sulfhydryl inhibitor NEM assessed as gastric lesion index at 50 mg/kg, po dosed 50 mins before HCl/EtOH challenge and measured 1 hr post HCl/EtOH challenge (reference value: 12.1 +/- 2.5 mm); type: functional, Stomach
Mus musculus [5] = test: as §1, with “prostaglandin synthesis” for “sulfhydryl”, “indomethacin” for “NEM”; type: functional, Stomach
Mus musculus [6] = test: Gastroprotective activity in Swiss albino mouse model of HCl/EtOH-induced lesion assessed as gastric lesion index at 50 mg/kg, po dosed 50 mins before HCl/EtOH challenge and measured 1 hr post HCl/EtOH challenge (reference value: 42 +/- 1.9 mm); type: functional, Stomach
Mus musculus [7] = test: as §1, with “70” for “10”, “NO synthase” for “sulfhydryl”, “L-NAME” for “NEM”; type: functional, Stomach
Mus musculus [8] = test: Gastroprotective activity in Swiss albino mouse model of HCl/EtOH-induced lesion assessed as gastric lesion index at 10 mg/kg, po dosed 50 mins before HCl/EtOH challenge and measured 1 hr post HCl/EtOH challenge (reference value: 42 +/- 1.9 mm); type: functional, Stomach
Mus musculus [9] = test: Gastroprotective activity in Swiss albino mouse model of HCl/EtOH-induced lesion assessed as inhibition of gastric lesions at 12.5 to 100 mg/kg, po dosed 50 mins before HCl/EtOH challenge and measured 1 hr post HCl/EtOH challenge; type: functional; conditions: Stomach
Mus musculus [10] = test: Gastroprotective activity in Swiss albino mouse model of HCl/EtOH-induced lesion assessed as inhibition of gastric lesions at 100 mg/kg, po dosed 50 mins before HCl/EtOH challenge and measured 1 hr post HCl/EtOH challenge; type: functional; conditions: Stomach
Mus musculus [11] = test: Gastroprotective activity in Swiss albino mouse model of HCl/EtOH-induced lesion assessed as gastric lesion index at 70 mg/kg, po dosed 50 mins before HCl/EtOH challenge and measured 1 hr post HCl/EtOH challenge (reference value: 42 +/- 1.9 mm); type: functional, Stomach
Mus musculus [12] = test: Gastroprotective activity in Swiss albino mouse model of HCl/EtOH-induced lesion assessed as gastric lesion index at 100 mg/kg, po dosed 50 mins before HCl/EtOH challenge and measured 1 hr post HCl/EtOH challenge (reference value: 42 +/- 1.9 mm); type: functional, Stomach
Mus musculus [13] = test: Gastroprotective activity in Swiss albino mouse model of HCl/EtOH-induced lesion assessed as inhibition of gastric lesions at 20 mg/kg, po dosed 50 mins before HCl/EtOH challenge and measured 1 hr post HCl/EtOH challenge; type: functional; conditions: Stomach

Row | SMILES | IC50 [1] [µM] | IC50 (AGS) [µM] | inhibition in vivo at 50 mg/kg (Mus musculus [2]) [%] | also measured
1 | C[C@]12C=C[C@@]3(CC[C@@H]4[C@@](C)(COC(=O)/C=C/c5ccccc5[N+](=O)[O-])CCC[C@@]4(C)[C@@H]3CC1)C2 | 38 | 25 | 14 | 
2 | C[C@]12C=C[C@@]3(CC[C@@H]4[C@@](C)(COC(=O)/C=C/c5cccc(Cl)c5)CCC[C@@]4(C)[C@@H]3CC1)C2 | 15 | 12 | 77 | Activity (Mus musculus [3]): 17 mm; Activity (Mus musculus [4]): 15.2 mm; Activity (Mus musculus [5]): 38.9 mm; Activity (Mus musculus [6]): 12.1 mm; Activity (Mus musculus [7]): 13.1 mm
3 | CCCCCCCCCCCCCC(=O)OC[C@@]1(C)CCC[C@]2(C)[C@@H]1CC[C@@]13C=C[C@@](C)(CC[C@H]12)C3 | 61 | 38 | 46 | 
4 | CCN1C(=O)C=CC1=O [N-ETHYLMALEIMIDE] |  |  |  | Activity (Mus musculus [8]): 41.9 mm
5 | COc1cccc(/C=C/C(=O)OC[C@@]2(C)CCC[C@]3(C)[C@@H]2CC[C@@]24C=C[C@@](C)(CC[C@H]23)C4)c1 | 289 | 165 | 4 | 
6 | C[C@]12C=C[C@@]3(CC[C@@H]4[C@@](C)(COC(=O)/C=C/c5ccc(F)cc5)CCC[C@@]4(C)[C@@H]3CC1)C2 | 69 | 58 | 24 | 
7 | CCCCCCCCCCCC(=O)OC[C@@]1(C)CCC[C@]2(C)[C@@H]1CC[C@@]13C=C[C@@](C)(CC[C@H]12)C3 | 52 | 33 | 51 | 
8 | COc1ccc2c(c1)c(CC(=O)O)c(C)n2C(=O)c1ccc(Cl)cc1 [INDOMETHACIN] |  |  |  | Activity (Mus musculus [8]): 39.9 mm
9 | COc1ccccc1/C=C/C(=O)OC[C@@]1(C)CCC[C@]2(C)[C@@H]1CC[C@@]13C=C[C@@](C)(CC[C@H]12)C3 | 311 | 151 | 7 | 
10 | C[C@]12C=C[C@@]3(CC[C@@H]4[C@@](C)(COC(=O)/C=C/c5ccc(Cl)cc5)CCC[C@@]4(C)[C@@H]3CC1)C2 | 29 | 18 | 42 | 
11 | CCCCCCCCCCCCCCCC(=O)OC[C@@]1(C)CCC[C@]2(C)[C@@H]1CC[C@@]13C=C[C@@](C)(CC[C@H]12)C3 | 88 | 64 | 46 | 
12 | Cc1ccc(/C=C/C(=O)OC[C@@]2(C)CCC[C@]3(C)[C@@H]2CC[C@@]24C=C[C@@](C)(CC[C@H]23)C4)cc1 | 49 | 39 | 8 | 
13 | CCCCCCCCCC(=O)OC[C@@]1(C)CCC[C@]2(C)[C@@H]1CC[C@@]13C=C[C@@](C)(CC[C@H]12)C3 | 33 | 21 | 52 | 
14 | C[C@]12C=C[C@@]3(CC[C@@H]4[C@@](C)(CO)CCC[C@@]4(C)[C@@H]3CC1)C2 | 31 | 19 | 53 | ED50 (Mus musculus [9]): 50 mg/kg; inhibition (Mus musculus [9]): Dose-dependent effect; inhibition in vivo at 100 mg/kg (Mus musculus [10]): 79%
15 | COC(=O)[C@@H](N)CCCNC(=N)N[N+](=O)[O-] [L-NAME] |  |  |  | Activity (Mus musculus [11]): 42.7 mm
16 | CCCCCCCCCCCCCCCCCCCC(=O)OC[C@@]1(C)CCC[C@]2(C)[C@@H]1CC[C@@]13C=C[C@@](C)(CC[C@H]12)C3 | 581 | 321 | 34 | 
17 | COc1ccc(/C=C/C(=O)OC[C@@]2(C)CCC[C@]3(C)[C@@H]2CC[C@@]24C=C[C@@](C)(CC[C@H]23)C4)cc1 | 378 | 230 | 11 | 
18 | CC1(C)[C@@H](OC(=O)CCC(=O)O)CC[C@]2(C)[C@H]3C(=O)C=C4[C@@H]5C[C@@](C)(C(=O)O)CC[C@]5(C)CC[C@@]4(C)[C@]3(C)CC[C@@H]12 [CARBENOXOLONE] |  |  |  | Activity (Mus musculus [12]): 13.1 mm
19 | C[C@]12C=C[C@@]3(CC[C@@H]4[C@@](C)(COC(=O)/C=C/c5cccc([N+](=O)[O-])c5)CCC[C@@]4(C)[C@@H]3CC1)C2 | 44 | 29 | 2 | 
20 | CCCCCCCCCCCCCCCCCC(=O)OC[C@@]1(C)CCC[C@]2(C)[C@@H]1CC[C@@]13C=C[C@@](C)(CC[C@H]12)C3 | 359 | 228 | 44 | 
21 | C[C@]12C=C[C@@]3(CC[C@@H]4[C@@](C)(COC(=O)/C=C/c5ccccc5)CCC[C@@]4(C)[C@@H]3CC1)C2 | 45 | 30 | 68 | 
22 | Cc1c(OCC(F)(F)F)ccnc1C[S+]([O-])c1nc2ccccc2[nH]1 (stereo not given) [LANSOPRAZOLE] | 291 | 149 | 65 | inhibition in vivo at 20 mg/kg (Mus musculus [13]): 57%
23 | C[C@]12C=C[C@@]3(CC[C@@H]4[C@@](C)(COC(=O)/C=C/c5ccc([N+](=O)[O-])cc5)CCC[C@@]4(C)[C@@H]3CC1)C2 | 61 | 35 | 0 | 
